Measured values as given in the supplement of paper PMC10627819.

How the values were obtained:
B. subtilis 168 [1] = assay: fitness (endpoint OD595 vs no drug) (fraction); higher = more growth
Summary of the method: (§1)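 In 384-well plates at 37 °C, cultures began at OD595 0.01 in 30 µl, with 55 µl used for S. pneumoniae. OD595 readings every 30 min for 14 h were corrected by the first reading. Fitness divides the stationary-phase transition optical density by the robust mean of no-drug control wells. The result is capped at 1.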

S. pneumoniae D39V [2] = assay: as above
Summary of the method: as §1

B. subtilis 168 [3] = assay: Bliss interaction score (quartile over a dose matrix) (fitness difference); higher = more antagonism (negative = synergy)
Summary of the method: (§2)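 At entry into stationary phase, OD595 was recorded and divided by the robust mean of the no-drug wells on that plate, with any value above 1 set to 1. This gives the fitness measure used throughout. Single-drug fitness was inferred from combination data, and the Bliss score, observed minus product-expected fitness, is shown as quartiles across technical, biological and donor/recipient replicates.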

S. aureus Newman = assay: as above
Summary of the method: as §2

S. aureus DSM 20231 = assay: as above
Summary of the method: as §2

S. pneumoniae D39V [4] = assay: as above
Summary of the method: as §2
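Wherever Bliss interaction score (quartile over a dose matrix) is given: first quartile when negative (synergy) and third quartile when positive (antagonism).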

C[C@H]1c2cccc(O)c2C(=O)C2=C(O)[C@]3(O)C(=O)C(C(N)=O)=C(O)[C@@H](N(C)C)[C@@H]3[C@@H](O)[C@@H]21 [Doxycycline] + CC(=O)NC[C@H]1CN(c2ccc(N3CCOCC3)c(F)c2)C(=O)O1 [Linezolid]
fitness, one replicate
Details | first compound 0.003875 µg/mL | first compound 0.00775 µg/mL | first compound 0.02 µg/mL | first compound 0.031 µg/mL | first compound 0.04 µg/mL | first compound 0.062 µg/mL | first compound 0.08 µg/mL
B. subtilis 168 [1], partner 0.0625 µg/mL | – | – | 0.775 | – | 0.51 | – | 0.0619
S. pneumoniae D39V [2], partner 0.2 µg/mL | 0.796 | 0.774 | – | 0.668 | – | 0.465 | –
S. pneumoniae D39V [2], partner 0.4 µg/mL | 0.7 | 0.65 | – | 0.4 | – | 0.241 | –
S. pneumoniae D39V [2], partner 0.8 µg/mL | 0.353 | 0.37 | – | 0.24 | – | 0.116 | –

Details | fitness
B. subtilis 168 [1], first compound 0.02 µg/mL, partner 0.5 µg/mL | 0.0524
B. subtilis 168 [1], first compound 0.04 µg/mL, partner 0.5 µg/mL | 0.0497
B. subtilis 168 [1], first compound 0.08 µg/mL, partner 0.25 µg/mL | 0.0313
B. subtilis 168 [1], first compound 0.08 µg/mL, partner 0.5 µg/mL | 0.0418
S. pneumoniae D39V [2], first compound 0.0155 µg/mL, partner 0.105 µg/mL | 0.702
S. pneumoniae D39V [2], first compound 0.0155 µg/mL, partner 0.2 µg/mL | 0.776
S. pneumoniae D39V [2], first compound 0.0155 µg/mL, partner 0.21 µg/mL | 0.595
S. pneumoniae D39V [2], first compound 0.0155 µg/mL, partner 0.4 µg/mL | 0.575
S. pneumoniae D39V [2], first compound 0.0155 µg/mL, partner 0.42 µg/mL | 0.406
S. pneumoniae D39V [2], first compound 0.0155 µg/mL, partner 0.8 µg/mL | 0.325
S. pneumoniae D39V [2], first compound 0.031 µg/mL, partner 0.105 µg/mL | 0.694
S. pneumoniae D39V [2], first compound 0.031 µg/mL, partner 0.21 µg/mL | 0.602
S. pneumoniae D39V [2], first compound 0.031 µg/mL, partner 0.42 µg/mL | 0.297
S. pneumoniae D39V [2], first compound 0.062 µg/mL, partner 0.105 µg/mL | 0.606
S. pneumoniae D39V [2], first compound 0.062 µg/mL, partner 0.21 µg/mL | 0.477
S. pneumoniae D39V [2], first compound 0.062 µg/mL, partner 0.42 µg/mL | 0.207

Details | Bliss interaction score
B. subtilis 168 [3] | -0.137
S. aureus DSM 20231 | -0.0188
S. aureus Newman | -0.0282
S. pneumoniae D39V [4] | -0.197

O=C(O)c1cn(C2CC2)c2cc(N3CCNCC3)c(F)cc2c1=O [Ciprofloxacin] + CN(C)C(=O)C(CCN1CCC(O)(c2ccc(Cl)cc2)CC1)(c1ccccc1)c1ccccc1 [Loperamide]
Details | fitness
B. subtilis 168 [1], first compound 0.0098 µg/mL, partner 25 µg/mL | 0.855
B. subtilis 168 [1], first compound 0.0195 µg/mL, partner 25 µg/mL | 0.643
B. subtilis 168 [1], first compound 0.039 µg/mL, partner 25 µg/mL | 0.038
B. subtilis 168 [1], first compound 0.039 µg/mL, partner 50 µg/mL | 0.0608
B. subtilis 168 [1], first compound 0.039 µg/mL, partner 100 µg/mL | 0.0402
S. pneumoniae D39V [2], first compound 0.125 µg/mL, partner 17.14 µg/mL | 0.944
S. pneumoniae D39V [2], first compound 0.125 µg/mL, partner 20 µg/mL | ≥ 1
S. pneumoniae D39V [2], first compound 0.125 µg/mL, partner 34.28 µg/mL | 0.923
S. pneumoniae D39V [2], first compound 0.125 µg/mL, partner 40 µg/mL | ≥ 1
S. pneumoniae D39V [2], first compound 0.25 µg/mL, partner 17.14 µg/mL | 0.887
S. pneumoniae D39V [2], first compound 0.25 µg/mL, partner 34.28 µg/mL | 0.886
S. pneumoniae D39V [2], first compound 0.5 µg/mL, partner 17.14 µg/mL | 0.763
S. pneumoniae D39V [2], first compound 0.5 µg/mL, partner 20 µg/mL | 0.883
S. pneumoniae D39V [2], first compound 0.5 µg/mL, partner 34.28 µg/mL | 0.731
S. pneumoniae D39V [2], first compound 0.5 µg/mL, partner 40 µg/mL | 0.865

fitness, S. pneumoniae D39V [2], one replicate
Details | partner 20 µg/mL | partner 40 µg/mL | partner 68.57 µg/mL | partner 80 µg/mL
first compound 0.125 µg/mL | – | – | 0.952 | –
first compound 0.25 µg/mL | 0.994 | ≥ 1 | 0.964 | 0.531
first compound 0.5 µg/mL | – | – | 0.886 | –

Details | Bliss interaction score
B. subtilis 168 [3] | 0.199
S. aureus DSM 20231 | -0.258
S. aureus Newman | -0.0992
S. pneumoniae D39V [4] | 0.109

C[C@H]1c2cccc(O)c2C(=O)C2=C(O)[C@]3(O)C(=O)C(C(N)=O)=C(O)[C@@H](N(C)C)[C@@H]3[C@@H](O)[C@@H]21 [Doxycycline] + CCN(CC)CCOC(=O)c1ccc(N)cc1 [Procaine]
fitness
Details | partner 85.5 µg/mL | partner 171 µg/mL | partner 342 µg/mL
B. subtilis 168 [1], first compound 0.02 µg/mL | 0.892 | 0.855 | 0.844
B. subtilis 168 [1], first compound 0.04 µg/mL | 0.742 | 0.707 | 0.7
B. subtilis 168 [1], first compound 0.08 µg/mL | – | 0.363 | –
S. pneumoniae D39V [2], first compound 0.0155 µg/mL | 0.972 | 0.95 | 0.955
S. pneumoniae D39V [2], first compound 0.031 µg/mL | 0.862 | 0.835 | 0.849
S. pneumoniae D39V [2], first compound 0.062 µg/mL | 0.77 | 0.753 | 0.744

fitness, S. pneumoniae D39V [2], one replicate
Details | partner 85.5 µg/mL | partner 171 µg/mL | partner 342 µg/mL
first compound 0.003875 µg/mL | ≥ 1 | ≥ 1 | ≥ 1
first compound 0.00775 µg/mL | ≥ 1 | 0.971 | 0.994

Details | Bliss interaction score
B. subtilis 168 [3] | -0.0366
S. aureus DSM 20231 | -0.0922
S. aureus Newman | 0.0409
S. pneumoniae D39V [4] | 0.0386

C[C@H]1c2cccc(O)c2C(=O)C2=C(O)[C@]3(O)C(=O)C(C(N)=O)=C(O)[C@@H](N(C)C)[C@@H]3[C@@H](O)[C@@H]21 [Doxycycline] + CN1C2=CC=CC=C2N=C3C1=CC=CC3=O [Pyocyanin]
Details | fitness
B. subtilis 168 [1], first compound 0.02 µg/mL, partner 1.25 µg/mL | 0.875
B. subtilis 168 [1], first compound 0.02 µg/mL, partner 2.5 µg/mL | 0.828
B. subtilis 168 [1], first compound 0.02 µg/mL, partner 5 µg/mL | 0.737
B. subtilis 168 [1], first compound 0.04 µg/mL, partner 1.25 µg/mL | 0.775
B. subtilis 168 [1], first compound 0.04 µg/mL, partner 2.5 µg/mL | 0.692
B. subtilis 168 [1], first compound 0.04 µg/mL, partner 5 µg/mL | 0.605
B. subtilis 168 [1], first compound 0.08 µg/mL, partner 1.25 µg/mL | 0.613
B. subtilis 168 [1], first compound 0.08 µg/mL, partner 2.5 µg/mL | 0.559
B. subtilis 168 [1], first compound 0.08 µg/mL, partner 5 µg/mL | 0.36
S. pneumoniae D39V [2], first compound 0.0155 µg/mL, partner 0.325 µg/mL | ≥ 1
S. pneumoniae D39V [2], first compound 0.0155 µg/mL, partner 0.65 µg/mL | ≥ 1
S. pneumoniae D39V [2], first compound 0.0155 µg/mL, partner 1.3 µg/mL | 0.823
S. pneumoniae D39V [2], first compound 0.031 µg/mL, partner 0.325 µg/mL | 0.941
S. pneumoniae D39V [2], first compound 0.031 µg/mL, partner 0.65 µg/mL | 0.97
S. pneumoniae D39V [2], first compound 0.062 µg/mL, partner 0.325 µg/mL | 0.857
S. pneumoniae D39V [2], first compound 0.062 µg/mL, partner 0.65 µg/mL | 0.87

fitness, S. pneumoniae D39V [2], one replicate
Details | first compound 0.003875 µg/mL | first compound 0.00775 µg/mL | first compound 0.031 µg/mL | first compound 0.062 µg/mL
partner 0.325 µg/mL | ≥ 1 | ≥ 1 | – | –
partner 0.65 µg/mL | ≥ 1 | 0.997 | – | –
partner 1.3 µg/mL | 0.741 | 0.737 | 0.854 | 0.694

Details | Bliss interaction score
B. subtilis 168 [3] | 0.092
S. aureus DSM 20231 | 0.0677
S. aureus Newman | -0.0231
S. pneumoniae D39V [4] | 0.127
